Experimental data reported in PubChem BioAssay (NCI).
Where “and” joins values, the source holds several entries; their conditions need not be identical. Equal entries are not always repeated.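 Growth conditions: 96-well plates. Treatment: test compound, 48 hours, 5 concentrations. Analysis: linear interpolation between bracketing concentrations; unreached endpoints set to highest concentration. Abbreviation: GI50, concentration required for 50% inhibition of growth. TGI denotes the concentration required for complete inhibition of growth.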

Columns and labels:
Assay in all cases: inhibition of tumour cell growth, NCI panel, 48 h
EKVX NSCLC = tested on: EKVX NSCLC
U251 CNS = tested on: U251 CNS
NCI-H460 lung = tested on: NCI-H460 lung
UACC-62 melanoma = tested on: UACC-62 melanoma
NCI-H23 lung = tested on: NCI-H23 lung
HCT-116 colon = tested on: HCT-116 colon
KM12 colon = tested on: KM12 colon
SK-MEL-28 melanoma = tested on: SK-MEL-28 melanoma
CAKI-1 renal = tested on: CAKI-1 renal
K-562 leukemia = tested on: K-562 leukemia
HS 578T breast = tested on: HS 578T breast
MALME-3M melanoma = tested on: MALME-3M melanoma
OVCAR-4 ovarian = tested on: OVCAR-4 ovarian
SNB-19 CNS = tested on: SNB-19 CNS
786-0 renal = tested on: 786-0 renal
ACHN renal = tested on: ACHN renal
A498 renal = tested on: A498 renal
SK-MEL-2 melanoma = tested on: SK-MEL-2 melanoma
DU-145 prostate = tested on: DU-145 prostate
HL-60(TB) leukemia = tested on: HL-60(TB) leukemia
MDA-MB-231 breast = tested on: MDA-MB-231 breast
SK-MEL-5 melanoma = tested on: SK-MEL-5 melanoma
LOX IMVI melanoma = tested on: LOX IMVI melanoma
MDA-MB-435 = tested on: MDA-MB-435
SF-295 CNS = tested on: SF-295 CNS
SK-OV-3 ovarian = tested on: SK-OV-3 ovarian
CCRF-CEM leukemia = tested on: CCRF-CEM leukemia
UO-31 renal = tested on: UO-31 renal
COLO 205 colon = tested on: COLO 205 colon
HOP-62 NSCLC = tested on: HOP-62 NSCLC
HOP-92 NSCLC = tested on: HOP-92 NSCLC
SW-620 colon = tested on: SW-620 colon
NCI-H522 lung = tested on: NCI-H522 lung
SR leukemia = tested on: SR leukemia
SF-268 CNS = tested on: SF-268 CNS
UACC-257 melanoma = tested on: UACC-257 melanoma
SN12C renal = tested on: SN12C renal
OVCAR-3 ovarian = tested on: OVCAR-3 ovarian
MCF7 breast = tested on: MCF7 breast
BT-549 breast = tested on: BT-549 breast
A549 NSCLC = tested on: A549 NSCLC
SNB-75 CNS = tested on: SNB-75 CNS
HCC-2998 colon = tested on: HCC-2998 colon
NCI-H226 lung = tested on: NCI-H226 lung
RPMI-8226 leukemia = tested on: RPMI-8226 leukemia
PC-3 prostate = tested on: PC-3 prostate
TK-10 renal = tested on: TK-10 renal
MOLT-4 leukemia = tested on: MOLT-4 leukemia
OVCAR-5 ovarian = tested on: OVCAR-5 ovarian
HT29 colon = tested on: HT29 colon
HCT-15 colon = tested on: HCT-15 colon
OVCAR-8 ovarian = tested on: OVCAR-8 ovarian
M14 melanoma = tested on: M14 melanoma
RXF 393 renal = tested on: RXF 393 renal
SF-539 CNS = tested on: SF-539 CNS
NCI/ADR-RES ovarian = tested on: NCI/ADR-RES ovarian
T-47D breast = tested on: T-47D breast

Structure (SMILES): CC(C)c1cc(C(=O)N2Cc3ccc(CN4CCN(C)CC4)cc3C2)c(O)cc1O
- GI50 (EKVX NSCLC): 0.983 µM and 1.27 µM
- TGI (EKVX NSCLC): > 100 µM
- GI50 (U251 CNS): 0.0863 µM and 0.32 µM
- TGI (U251 CNS): > 50.5 µM and 19.6 µM
- GI50 (NCI-H460 lung): 0.0311 µM and 0.0534 µM
- TGI (NCI-H460 lung): 16.2 µM and 11.6 µM
- GI50 (UACC-62 melanoma): 0.0697 µM and 0.286 µM
- TGI (UACC-62 melanoma): 15.4 µM and 3.91 µM
- GI50 (NCI-H23 lung): 0.0606 µM and 0.458 µM
- TGI (NCI-H23 lung): 97.4 µM and > 53.9 µM
- GI50 (HCT-116 colon): 0.0394 µM and 0.0818 µM
- TGI (HCT-116 colon): 15.3 µM and 13.4 µM
- GI50 (KM12 colon): 0.0291 µM and 0.0772 µM
- GI50 (SK-MEL-28 melanoma): 0.0983 µM and 0.536 µM
- TGI (SK-MEL-28 melanoma): 18.3 µM and 15.8 µM
- GI50 (CAKI-1 renal): 0.0522 µM and 0.512 µM
- GI50 (K-562 leukemia): 0.0472 µM and 0.207 µM
- TGI (K-562 leukemia): > 100 µM and 16.2 µM
- GI50 (HS 578T breast): 0.716 µM and 1.87 µM
- TGI (HS 578T breast): 35.3 µM and 43.9 µM
- GI50 (MALME-3M melanoma): 0.0403 µM and 0.271 µM
- TGI (MALME-3M melanoma): 1.26 µM and 1.66 µM
- GI50 (OVCAR-4 ovarian): 5.79 µM and 6.39 µM
- TGI (OVCAR-4 ovarian): > 100 µM
- GI50 (SNB-19 CNS): 0.872 µM and 0.847 µM
- TGI (SNB-19 CNS): > 100 µM
- GI50 (786-0 renal): 1.93 µM and 0.64 µM
- TGI (786-0 renal): 30.5 µM and 21 µM
- GI50 (ACHN renal): 0.0661 µM and 0.21 µM
- TGI (ACHN renal): > 100 µM
- TGI (A498 renal): > 100 µM and 15.2 µM
- GI50 (SK-MEL-2 melanoma): 0.736 µM and 0.71 µM
- TGI (SK-MEL-2 melanoma): 4.78 µM and 20.1 µM
- GI50 (DU-145 prostate): 0.0741 µM and 0.0553 µM
- TGI (DU-145 prostate): 24.4 µM and 18.8 µM
- GI50 (HL-60(TB) leukemia): 0.0479 µM and 0.212 µM
- TGI (HL-60(TB) leukemia): 16.2 µM and 11.6 µM
- GI50 (MDA-MB-231 breast): 0.39 µM and 0.443 µM
- TGI (MDA-MB-231 breast): 24.8 µM and 13.7 µM
- GI50 (SK-MEL-5 melanoma): 0.163 µM and 0.459 µM
- TGI (SK-MEL-5 melanoma): 17.3 µM and 16.5 µM
- GI50 (LOX IMVI melanoma): 0.055 µM and 0.177 µM
- TGI (LOX IMVI melanoma): 0.369 µM and 2.52 µM
- GI50 (MDA-MB-435): 0.0514 µM and 0.137 µM
- TGI (MDA-MB-435): 21.1 µM and 13.4 µM
- GI50 (SF-295 CNS): 0.0371 µM and 0.158 µM
- TGI (SF-295 CNS): 2.06 µM and 3.24 µM
- GI50 (SK-OV-3 ovarian): 0.0315 µM and 0.0644 µM
- TGI (SK-OV-3 ovarian): 54 µM and 18.8 µM
- GI50 (CCRF-CEM leukemia): 0.0737 µM and 0.106 µM
- TGI (CCRF-CEM leukemia): > 100 µM and 30.2 µM
- GI50 (UO-31 renal): 0.0591 µM and 0.296 µM
- TGI (UO-31 renal): 23.6 µM and 18.1 µM
- GI50 (COLO 205 colon): 0.0422 µM and 0.0444 µM
- GI50 (HOP-62 NSCLC): 0.128 µM and 0.656 µM
- TGI (HOP-62 NSCLC): > 92.2 µM
- GI50 (HOP-92 NSCLC): 0.617 µM and 0.498 µM
- TGI (HOP-92 NSCLC): 35.3 µM and 11 µM
- GI50 (SW-620 colon): 0.0376 µM and 0.0557 µM
- TGI (SW-620 colon): 23.6 µM and 14.8 µM
- GI50 (NCI-H522 lung): 0.0454 µM and 0.291 µM
- TGI (NCI-H522 lung): 3.2 µM and 18 µM
- GI50 (SR leukemia): 0.0371 µM and 0.0593 µM
- TGI (SR leukemia): 84 µM and 17.1 µM
- TGI (SF-268 CNS): 59.1 µM and 54.3 µM
- GI50 (UACC-257 melanoma): 0.0954 µM and 0.484 µM
- TGI (UACC-257 melanoma): 4.46 µM and 15.2 µM
- GI50 (SN12C renal): 0.106 µM and 0.498 µM
- TGI (SN12C renal): > 100 µM
- GI50 (OVCAR-3 ovarian): 0.0793 µM and 0.452 µM
- TGI (OVCAR-3 ovarian): 23.4 µM and 20.9 µM
- GI50 (MCF7 breast): 0.0254 µM and 0.0484 µM
- TGI (MCF7 breast): 24.1 µM and 30.5 µM
- GI50 (BT-549 breast): 15.9 µM and 2.39 µM
- TGI (BT-549 breast): > 100 µM and 30.4 µM
- GI50 (A549 NSCLC): 0.044 µM and 0.238 µM
- TGI (A549 NSCLC): > 46 µM and 37.1 µM
- GI50 (SNB-75 CNS): 1.27 µM and 2.19 µM
- TGI (SNB-75 CNS): 46.7 µM and > 57.3 µM
- GI50 (HCC-2998 colon): 0.0455 µM and 0.213 µM
- GI50 (NCI-H226 lung): 0.414 µM and 0.553 µM
- TGI (NCI-H226 lung): > 60.3 µM and 50.6 µM
- TGI (RPMI-8226 leukemia): > 100 µM and 30.2 µM
- GI50 (PC-3 prostate): 1.97 µM and 0.483 µM
- TGI (PC-3 prostate): > 100 µM
- GI50 (TK-10 renal): 0.0428 µM and 0.381 µM
- TGI (TK-10 renal): 49.8 µM
- GI50 (MOLT-4 leukemia): 0.0473 µM and 0.177 µM
- TGI (MOLT-4 leukemia): > 66.4 µM and 20.7 µM
- TGI (OVCAR-5 ovarian): > 100 µM
- GI50 (HT29 colon): 0.0428 µM and 0.058 µM
- TGI (HT29 colon): > 32.8 µM and 12.6 µM
- GI50 (HCT-15 colon): 0.0622 µM and 0.145 µM
- TGI (HCT-15 colon): > 100 µM and 21.8 µM
- GI50 (OVCAR-8 ovarian): 0.0604 µM and 0.3 µM
- TGI (OVCAR-8 ovarian): > 100 µM
- GI50 (M14 melanoma): 0.0659 µM and 0.334 µM
- TGI (M14 melanoma): 15.6 µM and 14.6 µM
- GI50 (RXF 393 renal): 0.916 µM and 2.36 µM
- TGI (RXF 393 renal): 30.5 µM and 28.8 µM
- GI50 (SF-539 CNS): 1.5 µM and 1 µM
- TGI (SF-539 CNS): 24.3 µM and 18 µM
- GI50 (NCI/ADR-RES ovarian): 0.245 µM and 0.779 µM
- TGI (NCI/ADR-RES ovarian): > 90 µM
- GI50 (T-47D breast): 0.0631 µM and 0.342 µM
- TGI (T-47D breast): 31.2 µM and 34.8 µM
